In patent US20260345603A1, “PRMT5 INHIBITORS” (Beijing Earthwise Technology Co., Ltd., priority 2022, published 2026):

Each compound was assayed on HCT116^MTAP Deletion cells (assay: Anti-proliferation assay on cells (CTG, 10 days), HCT116 MTAP Deletion). Conditions: Homo sapiens, HCT-116, 240 h, anti-proliferative activity, HCT116 MTAP Deletion, 10 days, class symbols; read-out: HCT116^MTAP Deletion GI50.
Type: cell-based
Procedure: HCT116^MTAD Deletion cells were from Pharmaron (China); HCT116 cells were from ATCC; McCoy's 5A medium was purchased from Invitrogen (USA); penicillin-streptomycin and fetal bovine serum were purchased from Gibco (USA); a 384-well plate was purchased from PerkinElmer (USA); and Cell-Titer Glo reagent was purchased from Promega (USA).
Compound dissolution: All the compounds were dissolved in dimethyl sulfoxide (DMSO) and then stored. The compounds were stored at room temperature in a dry condition for 3 months for short term storage or at −20 °C for long term storage.
The cells were cultured strictly in accordance with ATCC requirements. The cell culture medium (McCoy's 5A medium+10% fetal bovine serum+1% penicillin+streptomycin) was transferred to a 15 mL centrifuge tube and centrifuged at 1000 rpm for 5 min. The supernatant was removed. The cells were resuspended with complete culture medium, inoculated into a culture dish at the required density, and cultured in an incubator at 37 °C, 95% humid air, and 5% carbon dioxide. The culture medium was replenished or the cells were passaged every 2-3 days depending on the cell growth condition.
When the confluency of cells in the culture dish reached about 90%, the cells were washed twice with PBS, and then treated with trypsin to become single cells. The cells were counted, and 40 μl of the cells was inoculated into each well of a 384-well plate (50 cells/well). The plate was equilibrated at 37 °C and 5% carbon dioxide for 10 to 15 minutes. The compounds were injected into the 384-well plate using Echo550, and positive control and negative control (0.1% DMSO) were set up. Each compound was subjected to a 3-fold dilution, resulting in 10 concentration gradients, in duplicate, and the content of DMSO was 0.1%. The 384-well plate was incubated in a cell culture incubator for 10 days.
Then, 40 μl of cell proliferation assay reagent (CTG) was added to the 384-well plate, and the plate was shaken to mix well. Then, the 384-well plate was incubated at 37 °C and 5% carbon dioxide in the dark for 30 minutes. The data were read using the Envision multifunctional microplate reader. […] According to the different drug concentrations and their corresponding inhibition rates, the GI50 curve was drawn using GraphPad 8.0 software. The data were analyzed, and the final GI50 value was obtained.

GI50 | SMILES
10 to 100 nM | CN(C(=O)C(=O)Nc1cnc(N)c2c1cnn2C)C1COCc2c(F)cc(Cl)cc21 (racemic) [Compound 155]
≤ 10 nM | CN(C(=O)C(=O)Nc1cnc(N)c2c1cnn2C)C1COCc2cc(-c3ccnn3C)ccc21 (racemic) [Compound 156]
100 to 1000 nM | Cc1cc(NC(=O)C(=O)N(C)C2COCc3cc(C4=CCOCC4)ccc32)cnc1N (racemic) [Compound 162]
≤ 10 nM | CN(C(=O)C(=O)Nc1cnc(N)c2c1cnn2C)C1COCc2c1ccc(Cl)c2Cl (racemic) [Compound 168]
10 to 100 nM | CN(C(=O)C(=O)Nc1cnc(N)c2c1cnn2C)C1COc2cc(F)c(F)cc21 (racemic) [Compound 172]
≤ 10 nM | CN(C(=O)C(=O)Nc1cnc(N)c2c1cnn2C)C1COc2cc(Br)ccc21 (racemic) [Compound 180]
≤ 10 nM | Cc1ncc(-c2ccc3c(c2)COCC3N(C)C(=O)C(=O)Nc2cnc(N)c3c2cnn3C)s1 (racemic) [Compound 181]
≤ 10 nM | CN(C(=O)C(=O)Nc1cnc(N)c2c1cnn2C)C1COc2cc(Cl)c(Cl)cc21 (racemic) [Compound 186]
≤ 10 nM | CN(C(=O)C(=O)Nc1cnc(N)c2c1cnn2C)C1COc2cc(-c3ccnn3C)ccc21 (racemic) [Compound 192]
≤ 10 nM | Cc1ncc(-c2ccc3c(n2)COCC3N(C)C(=O)C(=O)Nc2cnc(N)c3c2cnn3C)s1 (racemic) [Compound 209]
≤ 10 nM | CN(C(=O)C(=O)Nc1cnc(N)c2c1cnn2C)C1COCc2cc(-c3ccc(C(F)(F)F)nc3)ccc21 (racemic) [Compound 221]
≤ 10 nM | CN(C(=O)C(=O)Nc1cnc(N)c2c1cnn2C)C1COCc2cc(-c3cnn(C4CC4)c3)ccc21 (racemic) [Compound 223]
≤ 10 nM | CN(C(=O)C(=O)Nc1cnc(N)c2c1cnn2C)C1COCc2cc(-c3cnn(C(F)(F)F)c3)ccc21 (racemic) [Compound 231]
≤ 10 nM | CN(C(=O)C(=O)Nc1cnc(N)c2c1cnn2C)C1COCc2cc(-c3ccnn3C3CC3)ccc21 (racemic) [Compound 241]
10 to 100 nM | CCC(C)N(Cc1ccc(C(F)(F)F)cn1)C(=O)C(=O)Nc1cnc(N)c2c1cnn2C (racemic) [Example 46-P1]
10 to 100 nM | CCC(C)N(Cc1ccc(C(F)(F)F)cn1)C(=O)C(=O)Nc1cnc(OC)c(C(N)=O)c1 (single isomer, unassigned) [Example 5-P1]
100 to 1000 nM | Cc1cc(NC(=O)C(=O)N(Cc2ccc(C(F)(F)F)cn2)C2CCCOC2)cnc1N (single isomer, unassigned) [Example 14-P1]
10 to 100 nM | Cc1cc(NC(=O)C(=O)N(Cc2ccc(C(F)(F)F)cn2)C(C)c2cscn2)cnc1N (single isomer, unassigned) [Example 19-P1]
10 to 100 nM | CCC(C)N(Cc1ccc(C(F)(F)F)cn1)C(=O)C(=O)Nc1cnc(N)c(C)c1 (single isomer, unassigned) [Example 45-P1]
≤ 10 nM | CC1OCC(N(C)C(=O)C(=O)Nc2cnc(N)c3c2cnn3C)c2ccc(C(F)(F)F)cc21 (stereo not shown) [Compound 187]
10 to 100 nM | C[C@H](c1ncccn1)N(Cc1ccc(C(F)(F)F)cn1)C(=O)C(=O)Nc1cnc(N)c2c1COC2 [Example 2]
1000 to 10000 nM | Cc1cc(NC(=O)C(=O)N(C)Cc2ccc(C(F)(F)F)cn2)cnc1N [Example 3]
10 to 100 nM | Cn1ncc2c(NC(=O)C(=O)N(Cc3ccc(C(F)(F)F)cn3)CC3CCC3)cnc(N)c21 [Example 4]
> 10000 nM | Cc1cc(/C=C/C(=O)N(Cc2ccc(C(F)(F)F)cn2)[C@H](C)c2ncccn2)cnc1N [Example 6]
> 10000 nM | Cc1cc(C2CC2C(=O)N(Cc2ccc(C(F)(F)F)cn2)[C@H](C)c2ncccn2)cnc1N (stereo partly shown) [Example 7]
10 to 100 nM | CCC(C)N(Cc1ccc(C(F)(F)F)cn1)C(=O)C(=O)Nc1cnc(N)c(C)c1 (stereo not shown) [Example 8]

GI50 | SMILES
10 to 100 nM | COC[C@H](C)N(Cc1ccc(C(F)(F)F)cn1)C(=O)C(=O)Nc1cnc(N)c(C)c1 [Example 9]
10 to 100 nM | CCC(C)N(Cc1ccc(C(F)(F)F)cn1)C(=O)C(=O)Nc1cnc(N)c2c1COC2C (stereo not shown) [Example 10]
100 to 1000 nM | Cc1cc(NC(=O)C(=O)N(Cc2ccc(C(F)(F)F)cn2)C2CCCC2)cnc1N [Example 11]
100 to 1000 nM | Cc1cc(NC(=O)C(=O)N(Cc2ccc(C(F)(F)F)cn2)C2CC2)cnc1N [Example 12]
100 to 1000 nM | Cc1cc(NC(=O)C(=O)N(Cc2ccc(C(F)(F)F)cn2)C2CCC2)cnc1N [Example 13]
10 to 100 nM | Cc1cc(NC(=O)C(=O)N(Cc2ccc(C(F)(F)F)cn2)CC2CC2)cnc1N [Example 15]
10 to 100 nM | Cc1cc(NC(=O)C(=O)N(Cc2ccc(C(F)(F)F)cn2)CC2CCC2)cnc1N [Example 16]
10 to 100 nM | Cc1cc(NC(=O)C(=O)N(Cc2ccc(C(F)(F)F)cn2)CC2CCCC2)cnc1N [Example 17]
100 to 1000 nM | Cc1cc(NC(=O)C(=O)N(Cc2ccc(C(F)(F)F)cn2)c2cnn(C)c2)cnc1N [Example 18]
100 to 1000 nM | CCc1cc(NC(=O)C(=O)N(Cc2ccc(C(F)(F)F)cn2)[C@H](C)c2ncccn2)cnc1N [Example 21]
1000 to 10000 nM | C[C@H](c1ncccn1)N(Cc1ccc(C(F)(F)F)cn1)C(=O)C(=O)Nc1cnc(N)c(F)c1 [Example 22]
1000 to 10000 nM | C[C@H](c1ncccn1)N(Cc1ccc(C(F)(F)F)cn1)C(=O)C(=O)Nc1cnc(N)c(Cl)c1 [Example 23]
100 to 1000 nM | C[C@H](c1ncccn1)N(Cc1ccc(C(F)(F)F)cn1)C(=O)C(=O)Nc1cnc(N)c(Br)c1 [Example 24]
10 to 100 nM | COc1ncc(NC(=O)C(=O)N(Cc2ccc(C(F)(F)F)cn2)[C@H](C)c2ncccn2)cc1C(N)=O [Example 25]
100 to 1000 nM | Cc1cc(N)ncc1NC(=O)C(=O)N(Cc1ccc(C(F)(F)F)cn1)[C@H](C)c1ncccn1 [Example 26]
100 to 1000 nM | Cc1nc(NC(=O)C(=O)N(Cc2ccc(C(F)(F)F)cn2)[C@H](C)c2ncccn2)cnc1N [Example 27]
1000 to 10000 nM | Cc1cc(NC(=O)C(=O)N(Cc2ccc(C#N)cn2)[C@H](C)c2ncccn2)cnc1N [Example 28]
100 to 1000 nM | Cc1cc(NC(=O)C(=O)N(Cc2ccc(N3CCC(F)(F)C3)cn2)[C@H](C)c2ncccn2)cnc1N [Example 29]
10 to 100 nM | C[C@H](c1ncccn1)N(Cc1ccc(C(F)(F)F)cn1)C(=O)C(=O)Nc1cnc(N)c2c1cnn2C [Example 30]
100 to 1000 nM | C[C@H](c1ncccn1)N(Cc1ccc(C(F)(F)F)cn1)C(=O)C(=O)Nc1cnc(N)c2c1CCCC2 [Example 31]
100 to 1000 nM | C[C@H](c1ncccn1)N(Cc1ccc(C(F)(F)F)cn1)C(=O)C(=O)Nc1cnc(N)c2ccncc12 [Example 32]
10 to 100 nM | CCOc1ccc(CN(C(=O)C(=O)Nc2cnc(N)c(C)c2)[C@H](C)c2ncccn2)nn1 [Example 35]
10 to 100 nM | Cc1cc(NC(=O)C(=O)N(Cc2ccc(C(F)(F)F)cn2)[C@H](C)C2CC2)cnc1N [Example 36]
10 to 100 nM | Cc1cc(NC(=O)C(=O)N(Cc2ccc(C(F)(F)F)cn2)CC(C)C)cnc1N [Example 37]
> 10000 nM | C[C@H](c1ncccn1)N(Cc1ccc(C(F)(F)F)cn1)C(=O)C(=O)Nc1cnc(N)c2cncn12 [Example 38]

Same assay, conditions: anti-proliferative activity, HCT116 MTAP Deletion, 10 days, class symbols; read-out: HCT116^MTAP Deletion GI50

GI50 | SMILES
10 to 100 nM | CN(C(=O)C(=O)Nc1cnc(N)c2c1cnn2C)C1COc2cc(C(F)(F)F)ccc21 (single isomer, unassigned) [Example 112-P2]
